# In patent publication US7989435B2, “Phytic citrate compounds and process for preparing the same” (IP-6 Research, Inc., priority 2005, dated 2011):
# “And” between values parts separate entries of the source, which are not always exact repeats. Identical values can stand only once. Like-named read-outs stand apart in the source and are kept apart here.
# Experiments:
# [1] = Biodegradability, 301 A DOC Die-Away Test (OECD Guidelines)
# Method: The biodegradability of phytic citrate was evaluated according to the method of “301 A DOC Die-Away Test” (1993), OECDGuidelines for Testing of Chemicals.
# [2] = Comparison of chelating effects, divalent cation electrode and ion analyzer; assay type: binding; set-up: unit not given here
# Method: The chelating effects of the various chelators were measured by the conventional method known to an artisan in the art. The concentration of the ions chelated by the chelator was determined using a divalent cation electrode (e.g., Model 93-32, made by Orion Research Incorporated) and an ion analyzer (e.g., Model EA 920, made by Orion Research Incorporated).
# [3] = at 66 grams/liter; cited from earlier work
# [4] = Re-dissolution rate of Fe^2+, FIG. 2; conditions: in brain tissues, compared with phytic acid and EDTA
# [5] = 7 days, test suspension / reference flask
# [6] = 14 days, test suspension / reference flask
compound,measurement,setting,value
"Nc1ccccc1 [Aniline Reference, Aniline, reference compound]",Degradation (%) in days,[1]; [5],>90 (100) %
same,Degradation (%) in days,[1]; [6],>90 (99.7) %
O=C(O)CC(O)(CC(=O)O)C(=O)O [Citric acid],Ca^2+ (conc. of ions chelated),[2],3.50
"O=C(O)CN(CCN(CC(=O)O)CC(=O)O)CC(=O)O [EDTA, ethylenediaminetetraacetic acid]",Ca^2+ (conc. of ions chelated),[2],10.70
O=C(O)[C@H](O)[C@@H](O)[C@H](O)[C@H](O)CO [Gluconic acid],Ca^2+ (conc. of ions chelated),[2],1.20
CC(O)C(=O)O (stereo not drawn) [Lactic acid],Ca^2+ (conc. of ions chelated),[2],1.07
O=P(O)(O)O[C@H]1[C@H](OP(=O)(O)O)[C@@H](OP(=O)(O)O)[C@H](OP(=O)(O)O)[C@@H](OP(=O)(O)O)[C@H]1OP(=O)(O)O [Phytic acid],Ca^2+ (conc. of ions chelated),[2]; pH 3,9.73
same,Ca^2+ (conc. of ions chelated),[2]; pH 5,10.55
same,Ca^2+ (conc. of ions chelated),[2]; pH 7,10.57
same,pH of aqueous solution,[3],0.9
Polyphosphoric acid,Ca^2+ (conc. of ions chelated),[2],3.0
phytic hexa-citrate [Phytic citrate],Ca^2+ (conc. of ions chelated),[2],12.24
same,Degradation (%) in days,"[1]; 7 days, abiotic sterile control",<10%
same,Degradation (%) in days,"[1]; 7 days, absorption control",<10%
same,Degradation (%) in days,[1]; [5],>90 (98.0) % and >90 (97.6) % and >90 (99.4) %
same,Degradation (%) in days,[1]; 14 days (mean of test suspension flasks 1-3),>90 (99.5) %
same,Degradation (%) in days,"[1]; 14 days, abiotic sterile control",<10%
same,Degradation (%) in days,"[1]; 14 days, absorption control",<10%
same,Degradation (%) in days,[1]; [6],>90 (98.6) % and >90 (100) %
same,Biodegradability (conclusion in words),[1]; results of Table 3,readily biodegradable
same,Re-dissolution rate of Fe^2+,[4],superior redissolution capability to phytic acid and EDTA
